Literature values, collected in PMC7904743, “WIDOCK: a reactive docking protocol for virtual screening of covalent inhibitors” (Journal of Computer-Aided Molecular Design, 2021).
Read-outs that look alike come from different tables or passages of the source.

How the values were obtained:
OTUB2 = OTUB2 protein labeling; experimental actives if % labeling higher than 50%; cited from earlier work
NUDT7 = settings: protein labeling at 200 μM; experimental actives if % labeling higher than 50%; cited from earlier work
[1] = thiol reactivity, cited from earlier work
[2] = natural log of average kinetic rate constant
[3] = natural log of average rate constant

Row | Compound | OTUB2 % labeling (OTUB2) [%] | NUDT7 % labeling (NUDT7) [%] | ln(avg k) [1, 2] | ln(avg k) [1, 3]
1 | CCN(C(=O)CCl)c1ccccc1C [PCM-0102980, CCN(C(=O)CCl)c1ccccc1C] | 0 | 43 | -16.814 | -16.814
2 | CC(C)(C)OC(=O)CNC(=O)CCl [PCM-0102981, CC(C)(C)OC(=O)CNC(=O)CCl] | 0 | 0 | -17.661 | -17.661
3 | Cc1nc(C2(NC(=O)CCl)CCCCC2)no1 [PCM-0102983, Cc1nc(C2(NC(=O)CCl)CCCCC2)no1] | 0 | 10 | -17.277 | -17.277
4 | CN(Cc1ccccc1)C(=O)CCl [PCM-0102984, CN(Cc1ccccc1)C(=O)CCl] | 0 | 11 | -16.386 | -16.386
5 | O=C(CCl)NNC(=O)c1ccco1 [PCM-0102985, O=C(CCl)NNC(=O)c1ccco1] | 27 | 0 | -17.545 | -17.545
6 | CN(Cc1cccc(C(F)(F)F)c1)C(=O)CCl [PCM-0102987, CN(Cc1cccc(C(F)(F)F)c1)C(=O)CCl] | 0 | 9 | -15.786 | -15.786
7 | CN(Cc1nc2ccccc2s1)C(=O)CCl [PCM-0102988, CN(Cc1nc2ccccc2s1)C(=O)CCl] | 0 | 30 | -15.687 | -15.687
8 | O=C(CCl)Nc1ccc(Br)cc1 [PCM-0102992, O=C(CCl)Nc1ccc(Br)cc1] | 8 | 11 | -15.800 | -15.800
9 | N#CC1(NC(=O)CCl)CCCCC1 [PCM-0102993, N#CC1(NC(=O)CCl)CCCCC1] | 0 | 8 | -16.137 | -16.137
10 | Cc1cc(C)c(NC(=O)CCl)c(Cl)c1 [PCM-0102994, Cc1cc(C)c(NC(=O)CCl)c(Cl)c1] | 0 | 26 | -16.989 | -16.989
11 | O=C(CCl)N1CCN(C(=O)C2COc3ccccc3O2)CC1 (stereo not shown) [PCM-0102996, O=C(CCl)N1CCN(C(=O)C2COc3ccccc3O2)CC1] | 13 | 0 | -15.549 | -15.549
12 | O=C(CCl)NNC(=O)CC1CCS(=O)(=O)C1 (stereo not shown) [PCM-0102998, O=C(CCl)NNC(=O)CC1CCS(=O)(=O)C1] | 69 | 0 | -16.898 | -16.898
13 | O=C(CCl)Nc1ccc(F)cc1 [PCM-0103002, O=C(CCl)Nc1ccc(F)cc1] | 30 | 0 | -16.182 | -16.182
14 | O=C(CCl)Nc1ccc(F)cc1F [PCM-0103004, O=C(CCl)Nc1ccc(F)cc1F] | 26 | 0 | -15.968 | -15.968
15 | O=C(CCl)N1CCN(Cc2ccco2)CC1 [PCM-0103006, O=C(CCl)N1CCN(Cc2ccco2)CC1] | 0 | 0 | -15.615 | -15.615
16 | O=C1CN(C(=O)CCl)CCN1 [PCM-0103008, O=C1CN(C(=O)CCl)CCN1] | 0 | 0 | -15.775 | -15.775
17 | CC(=O)c1cc2c(cc1NC(=O)CCl)OCO2 [PCM-0103010, CC(=O)c1cc2c(cc1NC(=O)CCl)OCO2] | 0 | 14 | -17.333 | -17.333
18 | O=C(CCl)NCC#Cc1cccc(C(F)(F)F)c1 [PCM-0103011, O=C(CCl)NCC#Cc1cccc(C(F)(F)F)c1] | 84 | 0 | -16.650 | -16.650
19 | NS(=O)(=O)c1ccc(Cl)c(NC(=O)CCl)c1 [PCM-0103012, NS(=O)(=O)c1ccc(Cl)c(NC(=O)CCl)c1] | 10 | 0 | -15.947 | -15.947
20 | Cc1ccccc1C(=O)NC1CCN(C(=O)CCl)CC1 [PCM-0103013, Cc1ccccc1C(=O)NC1CCN(C(=O)CCl)CC1] | 0 | 0 | -15.378 | -15.378
21 | CC(C)C(=O)NNC(=O)CCl [PCM-0103014, CC(C)C(=O)NNC(=O)CCl] | 9 | 0 | -17.522 | -17.522
22 | O=C(CCl)N1CCN(c2ccccc2[N+](=O)[O-])CC1 [PCM-0103016, O=C(CCl)N1CCN(c2ccccc2[N+](=O)[O-])CC1] | 9 | 27 | -15.523 | -15.523
